Bridge positions count the residues as written; N and C are the ends. Square brackets hold non-standard residues; d marks the D form. Peptide text beside a SMILES is read from it. R8 = C=CCCCCCC[C@@](C)(N)C(=O)O; S5 = C=CCCC[C@](C)(N)C(=O)O; Nle = CCCC[C@H](N)C(=O)O
Tested on: HRE-bla ME-180 cells
Assay: Reporter gene assay (HRE-bla ME-180 HIF reporter, GeneBLAzer)
Assay type: cell-based, human
Settings: for EC50: 24 hour normoxia
Procedure, shortened: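 A FRET β-lactamase readout of HIF transcription was used. After compound treatment in 0.3% DMSO/media under normoxic conditions, 20 μl of 6× LiveBLAzer-FRET B/G (CCF4-AM) substrate was added. Plates sat 3 hr at room temperature in the dark and were read at 409 Ex/460Em and 409Ex/530Em on a Synergy 2. Inhibition was compared against DMSO vehicle controls, with chetomin as positive control.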

| Structure (SMILES) | 18 h Avg % max inhibition at top conc (HIF Rptr-24 hrs normoxia) (μM) | EC50 [µM] |
| --- | --- | --- |
| CCCC[C@H](NC(=O)[C@H](CO)NC(=O)[C@@H](NC(=O)[C@H](CCC(=O)O)NC(=O)[C@H](CCC(=O)O)NC(=O)[C@H](CC(=O)O)NC(=O)[C@@H](NC(=O)[C@H](Cc1ccccc1)NC(C)=O)[C@@H](C)CC)C(C)C)C(=O)N[C@@]1(C)CCCC=CCCC[C@@](C)(C(=O)N[C@@H](CCCC)C(=O)N[C@@H](C)C(=O)N[C@@H](CC(C)C)C(=O)N[C@@H](CC(=O)O)C(=O)N[C@@H](CCCNC(=N)N)C(=O)N[C@H](C(N)=O)[C@@H](C)CC)NC(=O)[C@H]([C@@H](C)CC)NC(=O)[C@H](C(C)C)NC(=O)[C@H](CC(C)C)NC1=O [SP-49] (Ac-FIDEEVS[Nle][S5]LVI[S5][Nle]ALDRI-NH2; staple 9-13) | ++++ (≥50: ++++) | 5 to 15 |
| CCCC[C@H](NC(=O)[C@H](CC(C)C)NC(=O)[C@@H](NC(=O)[C@H](CCC(=O)O)NC(=O)[C@H](CCC(=O)O)NC(=O)[C@H](CO)NC(=O)[C@@H](NC(=O)[C@H](Cc1ccccc1)NC(C)=O)[C@@H](C)CC)C(C)C)C(=O)N[C@@]1(C)CCCC=CCCC[C@@](C)(C(=O)N[C@@H](CCCC)C(=O)N[C@@H](C)C(=O)N[C@@H](CC(C)C)C(=O)N[C@@H](CC(=O)O)C(=O)N[C@@H](CCCNC(=N)N)C(=O)N[C@H](C(N)=O)[C@@H](C)CC)NC(=O)[C@H]([C@@H](C)CC)NC(=O)[C@H](C(C)C)NC(=O)[C@H](CC(C)C)NC1=O [SP-46] (Ac-FISEEVL[Nle][S5]LVI[S5][Nle]ALDRI-NH2; staple 9-13) | +++ (≤25 but <50: +++) | 15 to 30 |
| CC[C@H](C)[C@H](NC(=O)[C@H](CCCNC(=N)N)NC(=O)[C@H](CC(=O)O)NC(=O)[C@H](CC(C)C)NC(=O)[C@H](C)NC(=O)[C@H](C)NC(=O)[C@]1(C)CCCC=CCCC[C@](C)(NC(=O)[C@H](C)NC(=O)[C@H](CC(C)C)NC(=O)[C@@H](NC(=O)[C@H](CCC(N)=O)NC(=O)[C@H](CCC(=O)O)NC(=O)[C@H](CC(=O)O)NC(=O)[C@@H](NC(=O)[C@H](Cc2ccccc2)NC(C)=O)[C@@H](C)CC)C(C)C)C(=O)N[C@@H](CC(C)C)C(=O)N[C@@H](C(C)C)C(=O)N[C@@H]([C@@H](C)CC)C(=O)N1)C(N)=O [SP-70] (Ac-FIDEQVLA[S5]LVI[S5]AALDRI-NH2; staple 9-13) | +++ (≤25 but <50: +++) | 5 to 15 |
| CCCC[C@H](NC(=O)[C@]1(C)CCCC=CCCC[C@](C)(NC(=O)[C@H](CO)NC(=O)[C@H](CC(C)C)NC(=O)[C@@H](NC(=O)[C@H](CCC(=O)O)NC(=O)[C@H](CCC(=O)O)NC(=O)[C@H](CC(=O)O)NC(=O)[C@@H](NC(=O)[C@H](Cc2ccccc2)NC(C)=O)[C@@H](C)CC)C(C)C)C(=O)N[C@@H](CC(C)C)C(=O)N[C@@H](C(C)C)C(=O)N[C@@H]([C@@H](C)CC)C(=O)N1)C(=O)N[C@@H](C)C(=O)N[C@@H](CC(C)C)C(=O)N[C@@H](CC(=O)O)C(=O)N[C@@H](CCCNC(=N)N)C(=O)N[C@H](C(N)=O)[C@@H](C)CC [SP-50] (Ac-FIDEEVLS[S5]LVI[S5][Nle]ALDRI-NH2; staple 9-13) | ++++ (≥50: ++++) | ≤ 5 |
| CCCC[C@H](NC(=O)[C@H](CC(C)C)NC(=O)[C@@H](NC(=O)[C@H](CCC(=O)O)NC(=O)[C@H](CCC(=O)O)NC(=O)[C@H](CC(=O)O)NC(=O)[C@@H](NC(=O)[C@H](Cc1ccccc1)NC(C)=O)[C@@H](C)CC)C(C)C)C(=O)N[C@@]1(C)CCCC=CCCC[C@@](C)(C(=O)N[C@@H](CCCC)C(=O)N[C@@H](CCC(=O)O)C(=O)N[C@@H](CC(C)C)C(=O)N[C@@H](CC(=O)O)C(=O)N[C@@H](CCCNC(=N)N)C(=O)N[C@H](C(N)=O)[C@@H](C)CC)NC(=O)[C@H]([C@@H](C)CC)NC(=O)[C@H](C(C)C)NC(=O)[C@H](CC(C)C)NC1=O [SP-39] (Ac-FIDEEVL[Nle][S5]LVI[S5][Nle]ELDRI-NH2; staple 9-13) | +++ (≤25 but <50: +++) | 15 to 30 |
| CC[C@H](C)[C@H](NC(=O)[C@H](Cc1ccccc1)NC(C)=O)C(=O)N[C@@H](CC(=O)O)C(=O)N[C@@H](CCC(=O)O)C(=O)N[C@@H](CCC(=O)O)C(=O)N[C@H](C(=O)N[C@]1(C)CCCCCCC=CCCC[C@@](C)(C(=O)NCC(=O)N[C@@H](CC(C)C)C(=O)N[C@@H](CC(=O)O)C(=O)N[C@@H](CCCNC(=N)N)C(=O)N[C@H](C(=O)N[C@@H](CCCCN)C(=O)N[C@@H](CCC(=O)O)C(=O)N[C@@H](CC(C)C)C(=O)N2CCC[C@H]2C(=O)N[C@@H](CCC(=O)O)C(=O)N[C@@H](CC(C)C)C(=O)N[C@@H](Cc2c[nH]c3ccccc23)C(=O)N[C@@H](CC(C)C)C(N)=O)[C@@H](C)CC)NC(=O)[C@H](CCC(=O)O)NC(=O)[C@H]([C@@H](C)CC)NC(=O)[C@H](C(C)C)NC(=O)[C@H](CC(C)C)NC(=O)[C@H](CO)NC(=O)[C@H](CCSC)NC1=O)C(C)C [SP-84] (Ac-FIDEEV[R8]MSLVIE[S5]GLDRIKELPELWL-NH2; staple 7-14) | + (<10: +) | > 30 |
| CCCC[C@H](NC(=O)[C@H](CC(C)C)NC(=O)[C@H](CO)NC(=O)[C@H](CCC(=O)O)NC(=O)[C@H](CCC(=O)O)NC(=O)[C@H](CC(=O)O)NC(=O)[C@@H](NC(=O)[C@H](Cc1ccccc1)NC(C)=O)[C@@H](C)CC)C(=O)N[C@@]1(C)CCCC=CCCC[C@@](C)(C(=O)N[C@@H](CCCC)C(=O)N[C@@H](C)C(=O)N[C@@H](CC(C)C)C(=O)N[C@@H](CC(=O)O)C(=O)N[C@@H](CCCNC(=N)N)C(=O)N[C@H](C(N)=O)[C@@H](C)CC)NC(=O)[C@H]([C@@H](C)CC)NC(=O)[C@H](C(C)C)NC(=O)[C@H](CC(C)C)NC1=O [SP-48] (Ac-FIDEESL[Nle][S5]LVI[S5][Nle]ALDRI-NH2; staple 9-13) | +++ (≤25 but <50: +++) | 15 to 30 |
| CCCC[C@H](NC(=O)[C@H](CC(C)C)NC(=O)[C@@H](NC(=O)[C@H](CCC(=O)O)NC(=O)[C@H](CCC(=O)O)NC(=O)[C@H](CC(=O)O)NC(=O)[C@@H](NC(=O)[C@H](Cc1ccccc1)NC(C)=O)[C@@H](C)CC)C(C)C)C(=O)N[C@@]1(C)CCCC=CCCC[C@@](C)(C(=O)N[C@@H](CCCC)C(=O)N[C@@H](C)C(=O)N[C@@H](CC(C)C)C(=O)N[C@@H](CC(=O)O)C(=O)N[C@@H](CCCNC(=N)N)C(=O)N[C@H](C(N)=O)[C@@H](C)CC)NC(=O)[C@H](CCC(=O)O)NC(=O)[C@H](C(C)C)NC(=O)[C@H](CC(C)C)NC1=O [SP-37] (Ac-FIDEEVL[Nle][S5]LVE[S5][Nle]ALDRI-NH2; staple 9-13) | + (<10: +) | > 30 |
| CCCC[C@H](NC(=O)[C@]1(C)CCCC=CCCC[C@](C)(NC(=O)[C@H](C)NC(=O)[C@H](CC(C)C)NC(=O)[C@@H](NC(=O)[C@H](CCC(=O)O)NC(=O)[C@H](CCC(=O)O)NC(=O)[C@H](CC(=O)O)NC(=O)[C@@H](NC(=O)[C@H](Cc2ccccc2)NC(C)=O)[C@@H](C)CC)C(C)C)C(=O)N[C@@H](CC(C)C)C(=O)N[C@@H](C(C)C)C(=O)N[C@@H]([C@@H](C)CC)C(=O)N1)C(=O)N[C@@H](C)C(=O)N[C@@H](CC(C)C)C(=O)N[C@@H](CC(=O)O)C(=O)N[C@@H](CCCNC(=N)N)C(=O)N[C@H](C(N)=O)[C@@H](C)CC [SP-16] (Ac-FIDEEVLA[S5]LVI[S5][Nle]ALDRI-NH2; staple 9-13) | ++++ (≥50: ++++) | ≤ 5 |
